Test results from patent US20120316199A1, “COMPOSITIONS AND METHODS FOR TREATING, CONTROLLING, REDUCING, OR AMELIORATING INFLAMMATORY PAIN” (priority 2011, published 2012).

Tested on: intraocular pressure (IOP)
Experiment: Intraocular pressure in New Zealand White rabbits, topical dosing four times daily
Type: in vivo
Conditions: untreated left eyes
Protocol: On Days 1-31, animals received daily topical doses of the appropriate test article into the right eye. Animals were dosed four times per day, with doses administered 2 hours apart. Doses were administered using a calibrated 50-μL pipette. The eyelids were held close for 10 seconds immediately following dosing. The time of each dose administration was recorded.
Intraocular pressure (“IOP”) was determined for both eyes of each animal on Days 3, 5, 10, 12, 16, 18, 22, 24, 26, 30, and 32. IOP was evaluated with a Medtronic Solan, Model 30 classic pneumatonometer. Proparacaine hydrochloride 0.5% (1 drop) was delivered to each eye prior to IOP measurement. IOP was measured on Monday. Wednesday, and Friday of each week. A two-point diurnal curve was established: IOP was recorded at 8 a.m. and 12 p.m. on Day 3, and at 8 a.m. and 2 p.m. on later days, with a ±1 hour range for each of these times. The time of the measurements was recorded.
Descriptive statistics were prepared for IOP data of each treatment group (left and right eyes separately) at each measurement interval. The statistics included the number of observations (“N”) mean, standard deviation (“STD”), and standard error (“SEM”). Statistical analyses were conducted on IOP results using Statistical Analysis Systems (SAS Institute. Inc., Cary, N.C. V8.0). Parameters were evaluated using analysis of variance/GLM Procedure followed by Tukey's Standardized Range Test (Tukey, 1985) for post hoc comparisons of group means. The level of significance was set at a probability of p<0.05 for all statistical procedures. Group IOP means were compared at each interval, with left and right eyes compared separately.

Structure (SMILES): Cc1ccc2c(NC[C@](O)(CC(C)(C)c3cc(F)cc4c3OCC4)C(F)(F)F)cccc2n1 [BOL-303242-X, mapracorat]
- Intraocular Pressure, MEAN (A.M. readings, Day 16, 1 mg/g (Group D)): 21.6 mmHg
- Intraocular Pressure, MEAN (A.M. readings, Day 16, 5 mg/g (Group C)): 23.4 mmHg
- Intraocular Pressure, MEAN (A.M. readings, Day 16, 10 mg/g (Group B)): 22.9 mmHg
- Intraocular Pressure, MEAN (A.M. readings, Day 18, 1 mg/g (Group D)): 23.3 mmHg
- Intraocular Pressure, MEAN (A.M. readings, Day 18, 5 mg/g (Group C)): 21.9 mmHg
- Intraocular Pressure, MEAN (A.M. readings, Day 18, 10 mg/g (Group B)): 21.2 mmHg
- Intraocular Pressure, MEAN (A.M. readings, Day 22, 1 mg/g (Group D)): 22.4 mmHg
- Intraocular Pressure, MEAN (A.M. readings, Day 22, 5 mg/g (Group C)): 21.6 mmHg
- Intraocular Pressure, MEAN (A.M. readings, Day 22, 10 mg/g (Group B)): 21.8 mmHg
- Intraocular Pressure, MEAN (A.M. readings, Day 24, 1 mg/g (Group D)): 22.4 mmHg
- Intraocular Pressure, MEAN (A.M. readings, Day 24, 5 mg/g (Group C)): 22.1 mmHg
- Intraocular Pressure, MEAN (A.M. readings, Day 24, 10 mg/g (Group B)): 20.2 mmHg
- Intraocular Pressure, MEAN (A.M. readings, Day 26, 1 mg/g (Group D)): 22.9 mmHg
- Intraocular Pressure, MEAN (A.M. readings, Day 26, 5 mg/g (Group C)): 21.7 mmHg
- Intraocular Pressure, MEAN (A.M. readings, Day 26, 10 mg/g (Group B)): 21.7 mmHg
- Intraocular Pressure, MEAN (A.M. readings, Day 30, 1 mg/g (Group D)): 23.4 mmHg
- Intraocular Pressure, MEAN (A.M. readings, Day 30, 5 mg/g (Group C)): 22.6 mmHg
- Intraocular Pressure, MEAN (A.M. readings, Day 30, 10 mg/g (Group B)): 22.7 mmHg
- Intraocular Pressure, MEAN (A.M. readings, Day 32, 1 mg/g (Group D)): 24.1 mmHg
- Intraocular Pressure, MEAN (A.M. readings, Day 32, 5 mg/g (Group C)): 23.1 mmHg
- Intraocular Pressure, MEAN (A.M. readings, Day 32, 10 mg/g (Group B)): 22.9 mmHg
- Intraocular Pressure, MEAN (A.M. readings, Pre-Study, 1 mg/g (Group D)): 23.9 mmHg
- Intraocular Pressure, MEAN (A.M. readings, Pre-Study, 5 mg/g (Group C)): 24.2 mmHg
- Intraocular Pressure, MEAN (A.M. readings, Pre-Study, 10 mg/g (Group B)): 23.8 mmHg
- Intraocular Pressure, MEAN (P.M. readings, Day 3, 1 mg/g (Group D)): 25.0 mmHg
- Intraocular Pressure, MEAN (P.M. readings, Day 3, 5 mg/g (Group C)): 23.9 mmHg
- Intraocular Pressure, MEAN (P.M. readings, Day 3, 10 mg/g (Group B)): 23.3 mmHg
- Intraocular Pressure, MEAN (P.M. readings, Day 5, 1 mg/g (Group D)): 24.7 mmHg
- Intraocular Pressure, MEAN (P.M. readings, Day 5, 5 mg/g (Group C)): 24.8 mmHg
- Intraocular Pressure, MEAN (P.M. readings, Day 5, 10 mg/g (Group B)): 25.2 mmHg
- Intraocular Pressure, MEAN (P.M. readings, Day 10, 1 mg/g (Group D)): 24.9 mmHg
- Intraocular Pressure, MEAN (P.M. readings, Day 10, 5 mg/g (Group C)): 24.6 mmHg
- Intraocular Pressure, MEAN (P.M. readings, Day 10, 10 mg/g (Group B)): 23.5 mmHg
- Intraocular Pressure, MEAN (P.M. readings, Day 12, 1 mg/g (Group D)): 23.7 mmHg
- Intraocular Pressure, MEAN (P.M. readings, Day 12, 5 mg/g (Group C)): 23.3 mmHg
- Intraocular Pressure, MEAN (P.M. readings, Day 12, 10 mg/g (Group B)): 24.1 mmHg
- Intraocular Pressure, MEAN (P.M. readings, Day 16, 1 mg/g (Group D)): 21.9 mmHg
- Intraocular Pressure, MEAN (P.M. readings, Day 16, 5 mg/g (Group C)): 20.4 mmHg
- Intraocular Pressure, MEAN (P.M. readings, Day 16, 10 mg/g (Group B)): 21.4 mmHg
- Intraocular Pressure, MEAN (P.M. readings, Day 18, 1 mg/g (Group D)): 22.7 mmHg
- Intraocular Pressure, MEAN (P.M. readings, Day 18, 5 mg/g (Group C)): 21.9 mmHg
- Intraocular Pressure, MEAN (P.M. readings, Day 18, 10 mg/g (Group B)): 22.1 mmHg
- Intraocular Pressure, MEAN (P.M. readings, Day 22, 1 mg/g (Group D)): 22.1 mmHg
- Intraocular Pressure, MEAN (P.M. readings, Day 22, 5 mg/g (Group C)): 22.1 mmHg
- Intraocular Pressure, MEAN (P.M. readings, Day 22, 10 mg/g (Group B)): 22.6 mmHg
- Intraocular Pressure, MEAN (P.M. readings, Day 24, 1 mg/g (Group D)): 22.9 mmHg
- Intraocular Pressure, MEAN (P.M. readings, Day 24, 5 mg/g (Group C)): 22.2 mmHg
- Intraocular Pressure, MEAN (P.M. readings, Day 24, 10 mg/g (Group B)): 22.8 mmHg
- Intraocular Pressure, MEAN (P.M. readings, Day 26, 1 mg/g (Group D)): 22.1 mmHg
- Intraocular Pressure, MEAN (P.M. readings, Day 26, 5 mg/g (Group C)): 22.3 mmHg
- Intraocular Pressure, MEAN (P.M. readings, Day 26, 10 mg/g (Group B)): 21.4 mmHg
- Intraocular Pressure, MEAN (P.M. readings, Day 30, 10 mg/g (Group B)): 21.7 mmHg
